This is an account of results in US6962912B2, “Substituted pyrazolo[4,3-e]diazepines, pharmaceutical compositions containing them, use as medicinal products and processes for preparing them” (Warner-Lambert LLC, priority 2000, dated 2005).

In data set [1] the target is PDE4. Briefly: Inhibition of PDE4 (cytosolic enzyme preparation from U937 line), compared with rolipram. It counts as biochemical, human. The settings on record: PDE4 enzyme preparation obtained from the U937 line.
For data set [2], the system named is production of TNFα. The data set can be described thus: in vivo TNFα model in Wistar rats (LPS-induced). As to conditions: oral administration 30 min before i.p. LPS; plasma 90 min after LPS; male Wistar rats. The source says: TNFα is a cytokine which plays a central role in the mechanisms of inflammation. Its production can be induced by an injection of lipopolysaccharide (LPS). It has been shown that the increase in intracellular cAMP, produced in particular by PDE4 inhibitors, decreases the production of TNFα in in vitro and in vivo models. It is thus a matter here of quantifying in vivo the anti-inflammatory potential of the compounds of the invention, administered orally (p.o.) by measuring the inhibition of the production of TNFα in the plasma of rats, these rats having received an intraperitoneal (i.p.) injection of lipopolysaccharide (LPS). The treatment with the compounds of the invention or the vehicle are [sic] administered orally to male Wistar rats, 30 min before the injection of LPS. The rats are sacrificed 90 min after the stimulation with LPS, the blood is collected onto EDTA and the TNFα concentration is measured in each plasma sample. […] References • Chen, Y. L., Le Vraux, V., Giroud, J. P. and Chauvelot-Moachon L. (1994). Anti-tumor necrosis factor properties of non-peptide drugs in acute-phase responses. […] Int. J. Immunopharmacol., 16 (10), 805-816. Model of Eosinophilia in Rats

The compound `CCn1nc(C(C)C)c2c1C(=S)NCC(c1ccccc1)=N2` [Example 2, 1-Ethyl-3-isopropyl-5-phenyl-6,7-dihydro-1H-pyrazolo[4,3-e][1,4]diazepin-8-thione] registered a melting point of 164 °C. Besides, 0.98 nM corresponded to half-maximal inhibition in data set [1] (IC50). In addition, the “inhibition of the production of TNFα in the plasma of rats” value (“inhibition of the production of TNFα” for short) in data set [2] was “excellent activity”.
The like results for `CCn1nc(C(C)C)c2c1C(=NC#N)NCC(c1ccccc1)=N2` [Example 3, 1-Ethyl-3-isopropyl-5-phenyl-6,7-dihydro-1H-pyrazolo[4,3-e][1,4]diazepin-8-ylidenecyanamide] were, in that order, 222 °C, 0.12 nM and “excellent activity”.
The like results for `CCn1nc(C)c2c1C(=O)NCC(c1ccc(OC)cc1)=N2` [Example 6, 1-Ethyl-5-(4-methoxyphenyl)-3-methyl-6,7-dihydro-1H-pyrazolo[4,3-e][1,4]diazepin-8-one] were, in that order, 178 °C, 420 nM and “excellent activity”.
The like results for `CCn1nc(C)c2c1C(=O)NCC(c1ccc(N)cc1)=N2` [Example 12, 5-(4-Aminophenyl)-1-ethyl-3-methyl-6,7-dihydro-1H-pyrazolo-[4,3-e][1,4]diazepin-8-one] were, in that order, 212 °C, 100 nM and “excellent activity”.
Compound `CCCn1nc(C)c2c1C(=O)NCC(c1ccccc1)=N2` [Example 15, 3-Methyl-5-phenyl-1-propyl-6,7-dihydro-1H-pyrazolo-[4,3-e][1,4]diazepin-8-one] registered a melting point of 171 °C. In addition, the 50% inhibitory concentration (IC50) in data set [1] stood at 520 nM. The “inhibition of the production of TNFα” value in data set [2] is listed as “excellent activity”.
`Cc1nn(CCO)c2c1N=C(c1ccccc1)CNC2=O` [Example 16, 1-(2-Hydroxyethyl)-3-methyl-5-phenyl-6,7-dihydro-1H-pyrazolo[4,3-e][1,4]diazepin-8-one] registered a melting point of 75 °C. Also, the IC50 in data set [1] was determined as 420 nM. Further, the “inhibition of the production of TNFα” value in data set [2] is “excellent activity”.
The matching figures for `CCn1nc(C)c2c1C(=S)NCC(c1ccccc1)=N2` [Example 17, 1-Ethyl-3-methyl-5-phenyl-6,7-dihydro-1H-pyrazolo[4,3-e][1,4]diazepin-8-thione]: 203.5 °C, 5.9 nM and “excellent activity”.
For `CCn1nc(C(C)(C)C)c2c1C(=O)NCC(c1ccccc1)=N2` [Example 21, 3-tert-Butyl-1-ethyl-5-phenyl-6,7-dihydro-1H-pyrazolo[4,3-e][1,4]diazepin-8-one], the melting point worked out at 160 °C. The same compound displayed a concentration for half-maximal inhibition (IC50) in data set [1] of 2.6 nM. Also, the “inhibition of the production of TNFα” value in data set [2] is given as “excellent activity”.
For `CCn1nc(C)c2c1C(=O)NCC(c1ccc(C)cc1)=N2` [Example 23, 1-Ethyl-3-methyl-5-p-tolyl-6,7-dihydro-1H-pyrazolo[4,3-e][1,4]diazepin-8-one], the melting point was 185 °C. Half-maximal inhibition in data set [1] (IC50) was put at 42 nM. Besides, the “inhibition of the production of TNFα” value in data set [2] is recorded as “excellent activity”.
As to `CCn1nc(C)c2c1C(=O)NCC(c1cccc(N)c1)=N2` [Example 24, 5-(3-Aminophenyl)-1-ethyl-3-methyl-6,7-dihydro-1H-pyrazolo[4,3-e][1,4]diazepin-8-one], the melting point was determined as 80 °C. In data set [1], inhibition was half-maximal at 78 nM (IC50). The “inhibition of the production of TNFα” value in data set [2] is “excellent activity”.
The compound `CCn1nc(C(C)(C)C)c2c1C(=S)NCC(c1ccccc1)=N2` [Example 25, 3-tert-Butyl-1-ethyl-5-phenyl-6,7-dihydro-1H-pyrazolo[4,3-e][1,4]diazepin-8-thione] registered a melting point of 230 °C. Also, in data set [1], the IC50 amounted to 2.4 nM. Moreover, in data set [2], the “inhibition of the production of TNFα” value is given as “excellent activity”.
Compound `CCn1nc(C(C)(C)C)c2c1C(=O)NCC(c1ccc(N)cc1)=N2` [Example 26, 5-(4-Aminophenyl)-3-tert-butyl-1-ethyl-6,7-dihydro-1H-pyrazolo[4,3-e][1,4]diazepin-8-one] returned a melting point of 189 °C. Also, 5.6 nM corresponded to half-maximal inhibition in data set [1] (IC50). The “inhibition of the production of TNFα” value in data set [2] is “excellent activity”.
The like results for `CCn1nc(C)c2c1C(=O)NCC(c1ccc(O)cc1)=N2` [Example 28, 1-Ethyl-5-(4-hydroxyphenyl)-3-methyl-6,7-dihydro-1H-pyrazolo[4,3-e][1,4]diazepin-8-one] were, in that order, 250 °C, 90 nM and “excellent activity”.
With `CCn1nc(C)c2c1C(=O)NCC(C1CCCCC1)=N2` [Example 31, 5-Cyclohexyl-1-ethyl-3-methyl-6,7-dihydro-1H-pyrazolo[4,3-e][1,4]diazepin-8-one], the melting point was determined as 50 °C. This compound came in with a concentration for half-maximal inhibition (IC50) in data set [1] of 190 nM. The “inhibition of the production of TNFα” value in data set [2] was “excellent activity”.
The like results for `CCn1nc(C)c2c1C(=O)NCC(c1ccncc1)=N2` [Example 32, 1-Ethyl-3-methyl-5-pyrid-4-yl-6,7-dihydro-1H-pyrazolo[4,3-e][1,4]diazepin-8-one] were, in that order, 148 °C, 130 nM and “excellent activity”.
`CCCCc1nn(CC)c2c1N=C(c1ccccc1)CNC2=O` [Example 34, 3-Butyl-1-ethyl-5-phenyl-6,7-dihydro-1H-pyrazolo[4,3-e][1,4]diazepin-8-one] showed a melting point of 105.4 °C. The compound also had an IC50 in data set [1] of 4.7 nM. Besides, the “inhibition of the production of TNFα” value in data set [2] was “excellent activity”.
With `CCn1nc(C)c2c1C(=NC#N)NCC(c1ccccc1)=N2` [Example 55, 1-Ethyl-3-methyl-5-phenyl-6,7-dihydro-1H-pyrazolo[4,3-e][1,4]diazepin-8-ylidenecyanamide], the melting point was 280 °C. The compound also yielded an IC50 in data set [1] of 1.7 nM. Also, in data set [2], the “inhibition of the production of TNFα” value is given as “excellent activity”.
Regarding `CCn1nc(C2CCCCC2)c2c1C(=O)NCC(c1ccncc1)=N2` [Example 73, 3-Cyclohexyl-1-ethyl-5-pyrid-4-yl-6,7-dihydro-1H-pyrazolo-[4,3-e][1,4]diazepin-8-one], the melting point is 126 to 127 °C. The same compound yielded an IC50 in data set [1] of 0.73 nM. In addition, the “inhibition of the production of TNFα” value in data set [2] is recorded as “excellent activity”.

Usually IC50 stands for the point on the concentration scale where inhibition reaches its midpoint. A low value points to greater potency. The term melting point denotes the temperature, or range, at which the solid turns liquid.
